Results published in BigSolDB 2.1.

O=C1c2ccccc2-c2ccccc21
solubility (mole fraction)
Settings	278.15 K	283.15 K	288.15 K	293.15 K	298.15 K	303.15 K	308.15 K	313.15 K	318.15 K
in DMSO	0.0418	0.0609	0.0728	0.0855	0.112	0.142	0.178	0.216	0.306
in acetonitrile	0.0209	0.0311	0.0481	0.0657	0.102	0.134	0.201	0.281	0.358
in ethanol	0.0127	0.014	0.0164	0.0222	0.0267	0.0307	0.0428	0.0506	0.0693
in ethyl acetate	0.105	0.137	0.142	0.172	0.225	0.243	0.284	0.35	0.371
in ethyl formate	0.0907	0.111	0.14	0.163	0.22	0.25	0.32	0.366	0.409
in isobutanol	0.0156	0.0207	0.0241	0.0305	0.0387	0.0504	0.0622	0.0745	0.0963
in isopropanol	0.0087	0.0119	0.0152	0.0217	0.0273	0.0384	0.0472	0.0592	0.0801
in methanol	0.0037	0.0044	0.0059	0.0084	0.012	0.0154	0.0199	0.0288	0.0401
in n-butanol	0.0119	0.0142	0.0182	0.0286	0.0371	0.0461	0.0631	0.0826	0.113
in n-hexane	0.0038	0.0047	0.0054	0.007	0.0097	0.0132	0.0169	0.0227	0.0304
in n-propanol	0.0143	0.0169	0.0214	0.0294	0.0381	0.0482	0.0653	0.083	0.0997
